Test results taken from US11007167B2, “Methods of treating multiple sclerosis” (Biogen MA Inc., priority 2014, dated 2021).
Entries after “also recorded” stand apart in the source; their conditions may differ. Counter-ions that a name gives are not always drawn.

Key:
patients with RRMS [1] = assay: Annualized relapse rate / clinical efficacy in DEFINE and CONFIRM; type: in vivo, human; settings: DMF 240 mg BID; for Rate ratio (95% CI) for adjusted ARR for DMF versus placebo: 2 years
Description: FIGS. 4A-4B depict reduction in ARR at 2 years in DEFINE (FIG. 4A) and CONFIRM (FIG. 4B) in patients in the DMF BID group with lymphopenia (at least 1 ALC less than LLN) or without lymphopenia (all ALCs greater than or equal to LLN) compared with all patients in placebo group. ARR=annualized relapse rate; CI=confidence interval. ^aDMF is delayed-release DMF (also known as gastro-resistant DMF, and as TECFIDERA®). ^bBased on negative binomial regression, adjusted for study, baseline EDSS (≤2.0 vs >2.0), baseline age (<40 vs ≥40), region, and number of relapses in the 1 year prior to study entry.
(§1) The Phase 2b study, DEFINE, and CONFIRM were multicenter, randomized, double-blind, placebo-controlled, parallel-group clinical trials of DMF as monotherapy for RRMS.
(§2) DEFINE and CONFIRM were 2 years in duration. Patients were randomized equally to DMF 240 mg twice daily (BID), 240 mg TID, or matching placebo.

MS patients [2] = assay: Serious infections by worst post-baseline CTC grade (Phase 2b, DEFINE, CONFIRM, ENDORSE); type: in vivo, human
Description: The Phase 2b study, […], and CONFIRM were multicenter, randomized, double-blind, placebo-controlled, parallel-group clinical trials of DMF as monotherapy for RRMS. ALCs were graded per Common Terminology Criteria for Adverse Events (CTCAE; Table 9).^9

patients with RRMS [3] = settings: DEFINE Phase 3 study; after two years of treatment; cited from earlier work
MS patients [4] = assay: Absolute lymphocyte count (ALC) profiles in DMF-treated MS patients (Phase 2b, DEFINE, CONFIRM, ENDORSE); type: in vivo, human
Procedure: as §1
The Phase 2b study was 12 months in duration, including a 6-month placebo-controlled part (Part 1) and a 6-month uncontrolled safety extension part (Part 2). During Part 1, patients were randomized equally to DMF 120 mg once daily (QD), 120 mg three times daily (TID), 240 mg TID, or placebo.
as §2
ENDORSE is a multicenter, parallel-group, dose-blinded extension of DEFINE/CONFIRM with up to 8 additional years of follow-up.
In the Phase 2b study, blood was collected every 4 weeks.
In DEFINE and CONFIRM, blood was collected every 4 weeks for the first 3 months and every 12 weeks thereafter, and within 1 month after study withdrawal or study completion if not continuing in the extension study.
In ENDORSE, blood was collected at baseline and every 12 weeks thereafter
ALCs were graded per Common Terminology Criteria for Adverse Events (CTCAE; Table 9).^9
Data from DEFINE and CONFIRM after subjects switched to alternative MS treatment were excluded.
Data from the 6-month uncontrolled safety extension of the Phase 2b study were included.

patient with MS = assay: Occurrence of progressive multifocal leukoencephalopathy (PML) in treated MS patients; settings: prolonged lymphopenia
healthy volunteer = assay: Healthy volunteer study: aspirin prior to DMF dosing (flushing); type: in vivo, human; settings: 325 mg non-enteric coated aspirin 30 minutes prior to DMF dosing
Procedure: In a specific embodiment, a NSAID (e.g., aspirin) is administered concurrently, before, and/or after administration of the fumarate (e.g., DMF). […] Some subjects who experience flushing with gastrointestinal side effects may reduce the dose to 120 mg DMF BID temporarily. Within a month, the effective dose of 240 mg DMF BID or 240 mg DMF TID should be resumed.

JCV = settings: literature report; cited from earlier work
[5] = percentage of the number with worst post-baseline count in that grade
[6] = All ALCs ≥ 500/mm^3 within the first 1 year
[7] = All ALCs ≥ 500/mm^3 within the first 6 months
[8] = All ALCs ≥ 800/mm^3 within the first 1 year
[9] = All ALCs ≥ 800/mm^3 within the first 6 months
[10] = At least 1 ALC < 500/mm^3 (row r11) within the first 1 year
[11] = At least 1 ALC < 500/mm^3 (row r12) within the first 1 year
[12] = At least 1 ALC < 500/mm^3 (row r12) within the first 6 months

Compound: COC(=O)/C=C/C(=O)OC [DMF, dimethyl fumarate]
- Rate ratio (95% CI) for adjusted ARR for DMF versus placebo (patients with RRMS [1]; CONFIRM, patients with treatment-associated lymphopenia): 0.525 (0.365, 0.756)
- Rate ratio (95% CI) for adjusted ARR for DMF versus placebo (patients with RRMS [1]; CONFIRM, patients without lymphopenia): 0.599 (0.429, 0.835)
- Rate ratio (95% CI) for adjusted ARR for DMF versus placebo (patients with RRMS [1]; DEFINE, patients with treatment-associated lymphopenia): 0.424 (0.294, 0.611)
- Rate ratio (95% CI) for adjusted ARR for DMF versus placebo (patients with RRMS [1]; DEFINE, patients without lymphopenia): 0.509 (0.381, 0.681)
- Reduction in ARR at 2 years versus placebo, patients with versus without lymphopenia (patients with RRMS [1]; DEFINE and CONFIRM): not substantially different
- Association of lymphopenia with risk of infections, serious infections, opportunistic infections (MS patients [2]; interim analysis of Phase 2b, DEFINE, CONFIRM, ENDORSE): not associated with an overall increased risk of infections or serious infections
- Serious infections, worst post-baseline CTC grade 0, % (MS patients [2]; [5]): (3) %
- Serious infections, worst post-baseline CTC grade 1, % (MS patients [2]; [5]): (5.5) %
- Serious infections, worst post-baseline CTC grade 2, % (MS patients [2]; [5]): (4) %
- Serious infections, worst post-baseline CTC grade 3 or 4, % (MS patients [2]; [5]): (3) %
- Clinical relapses, disability progression, lesion number and volume compared with placebo (patients with RRMS [3]): significantly reduced clinical relapses, accumulation of disability progression, and lesion number and volume
- ALCs after discontinuation of treatment (following final dose) (MS patients [4]; 9 patients with ALCs < 500 cells/μL for at least 6 months who discontinued or completed the study): ALCs generally increased; also recorded: All 9 patients showed increases in ALCs; also recorded: evidence of ALC improvement
- Patients who subsequently developed ALCs < 500/mm^3 persisting ≥ 6 months at any time, % (MS patients [4]; [6]): (0.7) %
- Patients who subsequently developed ALCs < 500/mm^3 persisting ≥ 6 months at any time, n/N (MS patients [4]; [6]): 16/2409
- Patients who subsequently developed ALCs < 500/mm^3 persisting ≥ 6 months at any time, % (MS patients [4]; [7]): (1.5) %
- Patients who subsequently developed ALCs < 500/mm^3 persisting ≥ 6 months at any time, n/N (MS patients [4]; [7]): 37/2446
- Patients who subsequently developed ALCs < 500/mm^3 persisting ≥ 6 months at any time, % (MS patients [4]; [8]): (0) %
- Patients who subsequently developed ALCs < 500/mm^3 persisting ≥ 6 months at any time, n/N (MS patients [4]; [8]): 0/2050
- Patients who subsequently developed ALCs < 500/mm^3 persisting ≥ 6 months at any time, % (MS patients [4]; [9]): (0.4) %
- Patients who subsequently developed ALCs < 500/mm^3 persisting ≥ 6 months at any time, n/N (MS patients [4]; [9]): 9/2219
- Patients who subsequently developed ALCs < 500/mm^3 persisting ≥ 6 months at any time, n/N (MS patients [4]; All ALCs ≥ LLN within the first 1 year of treatment): 0/1876
- Patients who subsequently developed ALCs < 500/mm^3 persisting ≥ 6 months at any time, n/N (MS patients [4]; All ALCs ≥ LLN within the first 6 months of treatment): 3/2083
- Patients who subsequently developed ALCs < 500/mm^3 persisting ≥ 6 months at any time, % (MS patients [4]; [10]): (17) %
- Patients who subsequently developed ALCs < 500/mm^3 persisting ≥ 6 months at any time, n/N (MS patients [4]; [10]): 47/420
- Patients who subsequently developed ALCs < 500/mm^3 persisting ≥ 6 months at any time, % (MS patients [4]; At least 1 ALC < 500/mm^3 (row r11) within the first 6 months): (10) %
- Patients who subsequently developed ALCs < 500/mm^3 persisting ≥ 6 months at any time, % (MS patients [4]; [11]): (51) %
- Patients who subsequently developed ALCs < 500/mm^3 persisting ≥ 6 months at any time, n/N (MS patients [4]; [11]): 31/61
- Patients who subsequently developed ALCs < 500/mm^3 persisting ≥ 6 months at any time, % (MS patients [4]; [12]): (42) %
- Patients who subsequently developed ALCs < 500/mm^3 persisting ≥ 6 months at any time, n/N (MS patients [4]; [12]): 10/24
- Patients who subsequently developed ALCs < 500/mm^3 persisting ≥ 6 months at any time, n/N (MS patients [4]; At least 1 ALC < 500/mm^3 within the first 6 months): 38/251
- Incidence of worst post-baseline ALC CTC grade 0, % (MS patients [4]; Total DMF, n = 2513): (61) %
- Incidence of worst post-baseline ALC CTC grade 1, % (MS patients [4]; Total DMF, n = 2513): (9) %
- Incidence of worst post-baseline ALC CTC grade 2, % (MS patients [4]; Total DMF, n = 2513): (21) %
- Incidence of worst post-baseline ALC CTC grade 3 or 4, % (MS patients [4]; Total DMF, n = 2513): (7) %
- Patients who experienced ALCs less than 500/mm^3 persisting for greater than or equal to 6 months, % (MS patients [4]; among patients treated for ≥ 6 months (N=2,099)): 2.2%
- Patients in whom ALCs remained greater than or equal to LLN (MS patients [4]; during the first 6 months): 84%
- Patients in whom ALCs remained greater than or equal to LLN (MS patients [4]; during the first year): 76%
- Course of ALCs with continued therapy (MS patients [4]; patients with ALCs < 500/mm^3 persisting ≥ 6 months): generally remained less than 500/mm^3
- Decrease of mean ALCs during the first year of treatment (MS patients [4]; then plateaued, remaining above LLN (910/mm^3) throughout the observation period): approximately 30%
- Cases of PML (patient with MS; MS patient in clinical trial, severe): a case of PML
- Lymphocyte counts of the patient who developed PML (patient with MS; 3.5 years duration): less than 0.5×10^9 /L

Compound: CC(=O)Oc1ccccc1C(=O)O [aspirin]
- Occurrence and severity of flushing (healthy volunteer): reduce the occurrence and severity of flushing

Compound: CCCCCCCCCCCCCCCCOCCCOP(=O)(O)CO[C@H](CO)Cn1ccc(N)nc1=O [CMX001, Hexadecyloxypropyl-Cidofovir]
- Effect on JCV replication (JCV): suppress JVC by inhibiting viral DNA replication

Compound: OC(c1cc(C(F)(F)F)nc2c(C(F)(F)F)cccc12)C1CCCCN1 (centres unmarked) [Mefloquine]
- Effect on JCV replication (JCV): block JCV replication without significant toxicity
